Measured values: EP2506856B1, “AMINOSTEROID COMPOUNDS FOR TOPIC LOCAL APPLICATION FOR SKIN-MUCOSA DECOLONISATION OF STAPHYLOCOCCUS AUREUS” (Assistance Publique Hôpitaux de Marseille, priority 2009, dated 2011)
Values after ≈ are worked out from the molar mass of the structure shown. Read-outs that look alike come from different tables or passages of the source. One block for each compound: values may come before it.

How the values were obtained:
S. aureus ATCC 25923 = experiment: MIC (CMI) determination on reference strain; assay type: cell-based, Staphylococcus aureus
Method: Les composés IIIa et IIIb (selon l'invention) avec R=-(CH2)n1-NHZ et n1=2 à 9 présentent une CMI de 2,5 à 20 µg/ml. Tableau 1 : CMI des dérivés III-a sur S. aureus ATCC 25923
(§1) Le composé III-1 présente la meilleure activité avec une CMI de 1µg/ml pour S. Aureus. Tableau 2 : CMI de la squalamine Ia et des dérivés II-1 et III-1 sur différentes souches de S. aureus.

[1] = system: S. aureus (souche de référence ATCC 25923); experiment: Comparative mouse skin colonisation model, single application of ointment, counts at 30 minutes and 1 hour; assay type: in vivo, souris; details: for activité de décolonisation par rapport à la squalamine et analogues: comparative ointments, 30 minutes and 1 hour
Method: On a également utilisé à fin de comparaisons une pommade à base de mupirocine (Bactroban®), d'acide fusidique (Fucidine®) ou de vancomycine et vaseline à titre de contrôle dans les mêmes conditions expérimentales. Ainsi, 10 µl d'une suspension bactérienne calibrée à 10^6 CFU/ml S. aureus a été appliquée sur la peau préalablement rasée d'une série de 6 souris sur deux quadrants différents (figure 4). Après 2 heures d'incubation et séchage, la pommade a été appliquée sur un des deux quadrants de peau contre une pommade contenant l'excipient seul sur l'autre quadrant. Les quantités de S. aureus, au temps 0 (avant application de la pommade) puis après 30 minutes et 1 heure d'application, ont été déterminées par écouvillonnage cutané et mise en culture sur milieu Chapman pour le dénombrement des colonies comme décrit précédemment.

[2] = system: Staphylococcus aureus (MRSA); experiment: MIC (CMI) determination on MRSA strain; assay type: cell-based; details: read-out: CMI
Method: as §1

[3] = system: différentes souches de S. aureus (y compris des souches résistantes à la méticilline (MRSA)); details: different S. aureus strains including MRSA; cited from earlier work
Staphylococcus = details: au bout de 24 heures; cited from earlier work
Staphylococcus aureus = details: 1% ointment, 2 fois/jour for 48 heures before surgery, fosses nasales; cited from earlier work
[4] = system: S. aureus (souche de référence ATCC 25923); experiment: Mouse skin colonisation model, single application of 1% ointment, counts at day 1 and day 2; assay type: in vivo, souris; details: figure 4, from environ 10^6 CFU/ml at J0
Method: Afin de tester l'activité in vivo des composés, on a inventé un modèle expérimental de colonisation cutanéo-muqueuse à S. aureus chez la souris. […] Brièvement, 10 µl d'une suspension bactérienne calibrée à 10^8 CFU/ml S. aureus a été appliquée sur la peau préalablement rasée des souris sur deux quadrants différents (figure 3). La colonisation par S. aureus était ensuite suivie quotidiennement pendant 2 jours par écouvillonnage cutané des souris, reprise de l'écouvillon dans 1 ml d'eau stérile et mise en culture de 100 µl sur gélose Chapman à 37°C pendant 24 heures avant énumération des colonies bactériennes.
De la même manière, 10 µl d'une suspension bactérienne calibrée à 10^8 CFU/ml S. aureus a été appliquée sur la peau préalablement rasée d'une série de 4 souris sur deux quadrants différents (figure 3). […] Les quantités de S. aureus, au temps 0 (avant application de la pommade) puis aux jours 1 et 2 (J1 et J2) après application, ont été déterminées par écouvillonnage cutané et mise en culture sur milieu Chapman pour le dénombrement des colonies comme décrit précédemment.

[5] = Staphylococcus aureus, ATCC25923, dérivés III-a, R=-(CH2)n1-NH2, S. aureus ATCC 25923, read-out: CMI
[6] = Staphylococcus aureus, ATCC25923, read-out: CMI
[7] = from environ 2.10^4 CFU/ml at t=0, single application of 1% ointment

Compound: C[C@H](NCCCN)[C@H]1CC[C@H]2[C@@H]3CCC4=C[C@@H](NCCCN)CC[C@]4(C)[C@H]3CC[C@]12C [III-a n1=3]
MIC (S. aureus ATCC 25923; [5]): 5 µg/mL (≈ 11.6 µM)

Compound: C[C@H](NCCCCCCN)[C@H]1CC[C@H]2[C@@H]3CCC4=C[C@@H](NCCCCCCN)CC[C@]4(C)[C@H]3CC[C@]12C [III-a n1=6]
MIC (S. aureus ATCC 25923; [5]): 2.5 µg/mL (≈ 4.86 µM)

Compound: CN[C@H](CC(C)C)C(=O)N[C@H]1C(=O)N[C@@H](CC(N)=O)C(=O)N[C@H]2C(=O)N[C@H]3C(=O)N[C@H](C(=O)N[C@H](C(=O)O)c4cc(O)cc(O)c4-c4cc3ccc4O)[C@H](O)c3ccc(c(Cl)c3)Oc3cc2cc(c3O[C@@H]2O[C@H](CO)[C@@H](O)[C@H](O)[C@H]2O[C@H]2C[C@](C)(N)[C@H](O)[C@H](C)O2)Oc2ccc(cc2Cl)[C@H]1O [vancomycine]
activité de décolonisation par rapport à la squalamine et analogues [1]: activité nettement moindre et moins rapide

Compound: C[C@H](NCCCCCCCN)[C@H]1CC[C@H]2[C@@H]3CCC4=C[C@@H](NCCCCCCCN)CC[C@]4(C)[C@H]3CC[C@]12C [III-a n1=7]
MIC (S. aureus ATCC 25923; [6]): 2.5 µg/mL (≈ 4.6 µM)

Compound: CC(=O)O[C@H]1C[C@@]2(C)[C@@H](C[C@@H](O)[C@H]3[C@@]4(C)CC[C@@H](O)[C@@H](C)[C@@H]4CC[C@@]32C)/C1=C(\CCC=C(C)C)C(=O)O [acide fusidique]
activité de décolonisation par rapport à la squalamine et analogues [1]: activité nettement moindre et moins rapide

Compound: C[C@H](NCCCCN)[C@H]1CC[C@H]2[C@@H]3CCC4=C[C@@H](NCCCCN)CC[C@]4(C)[C@H]3CC[C@]12C [III-a n1=4]
MIC (S. aureus ATCC 25923; [6]): 5 µg/mL (≈ 10.9 µM)

Compound: C[C@H](NCCN)[C@H]1CC[C@H]2[C@@H]3CCC4=C[C@@H](NCCN)CC[C@]4(C)[C@H]3CC[C@]12C [III-a n1=2]
MIC (S. aureus ATCC 25923; [5]): 20 µg/mL (≈ 49.7 µM)

Compound: CC(C)CCC[C@@H](C)[C@H]1CC[C@H]2[C@@H]3[C@@H](NCCCCN)C=C4C[C@@H](O)CC[C@]4(C)[C@H]3CC[C@]12C [II-1, 7β-(1,4-diaminobutane)-cholest-5-ene-3β-ol]
MIC ([2]; Staphylococcus aureus, MRSA): 2 µg/mL (≈ 4.23 µM) | décolonisation escomptée en moins de 24 heures ([1]; expected from the 60 minute result): ≥ 99,90% | concentration au bout de 60 minutes [1, 7]: 55 CFU/ml | CMI [3]: 2 µg/mL | MIC (S. aureus ATCC 25923; [6]): 2 µg/mL (≈ 4.23 µM)

Compound: C[C@H](NCCCCCN)[C@H]1CC[C@H]2[C@@H]3CCC4=C[C@@H](NCCCCCN)CC[C@]4(C)[C@H]3CC[C@]12C [III-a n1=5]
MIC (S. aureus ATCC 25923; [5]): 5 µg/mL (≈ 10.3 µM)

Compound: C[C@H](NCCCCCCCCN)[C@H]1CC[C@H]2[C@@H]3CCC4=C[C@@H](NCCCCCCCCN)CC[C@]4(C)[C@H]3CC[C@]12C [III-a n1=8]
MIC (S. aureus ATCC 25923; [5]): 2.5 µg/mL (≈ 4.38 µM)

Compound: C[C@H](NCCCCCCCCCN)[C@H]1CC[C@H]2[C@@H]3CCC4=C[C@@H](NCCCCCCCCCN)CC[C@]4(C)[C@H]3CC[C@]12C [III-a n1=9]
MIC (S. aureus ATCC 25923; [5]): 5 µg/mL (≈ 8.35 µM)

Compound: C/C(=C\C(=O)OCCCCCCCCC(=O)O)C[C@@H]1OC[C@H](C[C@@H]2O[C@H]2[C@@H](C)[C@H](C)O)[C@@H](O)[C@H]1O [mupirocine]
division de la concentration de bactéries Staphylococcus (Staphylococcus): 5.10^2 CFU/ml | activité de décolonisation par rapport à la squalamine et analogues [1]: activité nettement moindre et moins rapide | décolonisation des bactéries Staphylococcus aureus (Staphylococcus aureus): 99,9%

MIC ([2]; Staphylococcus aureus (MRSA)): 2 µg/mL (≈ 3.18 µM) | MIC (S. aureus ATCC 25923; ATCC25923, Staphylococcus aureus ATCC 25923, read-out: CMI): 2 µg/mL (≈ 3.18 µM)
Compound: CC(C)[C@@H](CC[C@@H](C)[C@H]1CC[C@H]2[C@@H]3[C@H](O)C[C@H]4C[C@@H](NCCCNCCCCN)CC[C@]4(C)[C@H]3CC[C@]12C)OS(=O)(=O)O [Ia, squalamine]
diminution du nombre de CFU/ml après 1 heure ([1]; 1% ointment, single application, figure 6): 4 logarithmes | concentration à t=30 minutes [1, 7]: < 1 CFU/ml | CMI [3]: 2 µg/mL | concentration en bactéries Staphylococcus aureus à J1 [4]: 10^2 CFU/ml | concentration en bactéries Staphylococcus aureus à J2 [4]: ~10^1 CFU/ml
